Target: T1, human PRMT1 (Homo sapiens, UniProt Q99873)
T1 construct: GST-tagged PRMT1; made in house; host or cells: High Five insect cells (baculovirus, pFastBacI)
Assay: PRMT1 Biochemical Assay
Settings: peptide substrate, 3H-SAM Flashplate assay
Text: S-adenosylmethionine (SAM), S-adenosylhomocysteine (SAH), bicine, Tween20, dimethylsulfoxide (DMSO), bovine skin gelatin (BSG), and Tris(2-carboxyethyl)phosphine hydrochloride solution (TCEP) were purchased from Sigma-Aldrich at the highest level of purity possible. ^3H-SAM was purchase from American Radiolabeled Chemicals with a specific activity of 80 Ci/mmol. 384-well streptavidin Flashplates were purchased from PerkinElmer.
Peptide representative of human histone H4 residues 36-50 was synthesized with an N-terminal linker-affinity tag motif and a C-terminal amide cap by 21st Century Biochemicals. The peptide was purified by high-performance liquid chromatography (HPLC) to greater than 95% purity and confirmed by liquid chromatography mass spectrometry (LC-MS). The sequence was Biot-Ahx-[…]-amide (SEQ ID NO.: 1).
Full-length human PRMT1 isoform 1 (NM_001536.5) transcript clone was amplified from an HEK 293 cDNA library, incorporating flanking 5′ sequence encoding a FLAG tag ([…]) (SEQ ID NO.:2) fused directly to Met 1 of PRMT1. The amplified gene was subcloned into pFastBacI (Life Technologies) modified to encode an N-terminal GST tag and a TEV cleavage sequence ([…] […] […] […])(SEQ ID NO.:3) fused to Asp of the Flag tag of PRMT1.
Recombinant baculovirus were generated according to Bac-to-Bac kit instructions (Life Technologies). Protein over-expression was accomplished by infecting exponentially growing High Five insect cell culture at 1.5×10^6 cell/ml with 1:100 ratio of virus. Infections were carried out at 27° C. for 48 hours, harvested by centrifugation, and stored at −80° C. for purification.
GST-tagged PRMT1 was eluted with 50 mM Tris, 2 mM glutathione, pH 7.8, dialysed in buffer A and concentrated to 1 mg/mL. The purity of recovered protein was 73%. Reference: Wasilko, D. J. and S. E. Lee: “TIPS: titerless infected-cells preservation and scale-up” Bioprocess J., 5 (2006), pp. 29-32.
General Procedure for PRMT1 Enzyme Assays on Peptide Substrates.
The assays were all performed in a buffer consisting of 20 mM Bicine (pH=7.6), 1 mM TCEP, 0.005% BSG, and 0.002% Tween 20, prepared on the day of use. Compounds in 100% DMSO (1 ul) were spotted into a polypropylene 384-well V-bottom plates (Greiner) using a Platemate Plus outfitted with a 384-channel head (Thermo Scientific). DMSO (1 ul) was added to Columns 11, 12, 23, 24, rows A-H for the maximum signal control and 1 ul of SAH, a known product and inhibitor of PRMT1, was added to columns 11, 12, 23, 24, rows I-P for the minimum signal control. A cocktail (40 ul) containing the PRMT1 enzyme was added by Multidrop Combi (Thermo-Fisher). The compounds were allowed to incubate with PRMT1 for 30 min at room temperature, then a cocktail (10 ul) containing SAM and peptide was added to initiate the reaction (final volume=51 ul). The final concentrations of the components were as follows: PRMT1 was 0.5 nM, ^3H-SAM was 200 nM, non-radiolabeled SAM was 1.5 uM, peptide was 20 nM, SAH in the minimum signal control wells was 1 mM, and the DMSO concentration was 2%. The assays were stopped by the addition of non-radiolabeled SAM (10 ul) to a final concentration of 300 uM, which dilutes the ^3H-SAM to a level where its incorporation into the peptide substrate is no longer detectable. 50 ul of the reaction in the 384-well polypropylene plate was then transferred to a 384-well Flashplate and the biotinylated peptides were allowed to bind to the streptavidin surface for at least 1 hour before being washed once with 0.1% Tween20 in a Biotek ELx405 plate washer. The plates were then read in a PerkinElmer TopCount plate reader to measure the quantity of ^3H-labeled peptide bound to the Flashplate surface, measured as disintegrations per minute (dpm) or alternatively, referred to as counts per minute (cpm).
Where dpm=disintegrations per minute, cmpd=signal in assay well, and min and max are the respective minimum and maximum signal controls. […]

T1 sequence (Q99873 with tags, fused parts or gaps): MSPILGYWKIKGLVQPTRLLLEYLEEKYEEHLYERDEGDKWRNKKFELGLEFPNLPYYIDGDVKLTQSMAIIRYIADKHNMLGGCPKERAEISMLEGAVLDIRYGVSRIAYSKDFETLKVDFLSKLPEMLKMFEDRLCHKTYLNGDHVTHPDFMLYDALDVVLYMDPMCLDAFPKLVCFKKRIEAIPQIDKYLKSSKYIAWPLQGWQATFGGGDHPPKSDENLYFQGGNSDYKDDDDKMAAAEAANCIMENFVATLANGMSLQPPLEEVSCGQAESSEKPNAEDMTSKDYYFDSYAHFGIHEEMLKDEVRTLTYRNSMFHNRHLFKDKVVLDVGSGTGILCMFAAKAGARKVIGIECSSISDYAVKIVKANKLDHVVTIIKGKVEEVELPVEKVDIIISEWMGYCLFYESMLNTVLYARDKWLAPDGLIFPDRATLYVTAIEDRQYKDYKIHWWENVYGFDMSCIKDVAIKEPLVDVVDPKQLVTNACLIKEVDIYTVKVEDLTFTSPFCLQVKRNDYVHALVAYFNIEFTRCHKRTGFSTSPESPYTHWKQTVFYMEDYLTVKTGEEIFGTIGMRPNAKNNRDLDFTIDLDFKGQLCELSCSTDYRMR

| SMILES | IC50 |
| --- | --- |
| CN(CCN)Cc1c[nH]nc1-c1cncc(F)c1 [Compound 7] | ≤ 100 nM |
| CN(CCN)Cc1c[nH]nc1-c1cccnc1 [Compound 8] | 101 to 1000 nM |
| Cc1cc(-c2n[nH]cc2CN(C)CCN)cnc1Cl [Compound 10] | ≤ 100 nM |
| COc1cc(-c2n[nH]cc2CN(C)CCN)c(Cl)cn1 [Compound 12] | 1010 to 3000 nM |
| COc1ccncc1-c1n[nH]cc1CN(C)CCN [Compound 16] | 101 to 1000 nM |
| Cc1ccncc1-c1n[nH]cc1CN(C)CCN [Compound 17] | 101 to 1000 nM |
| CN(CCN)Cc1c[nH]nc1-c1ccc(N2CCOCC2)nc1 [Compound 20] | ≤ 100 nM |
| CN(CCN)Cc1c[nH]nc1-c1ccc(N(C)Cc2ccccc2)nc1 [Compound 23] | ≤ 100 nM |
| CN(CCN)Cc1c[nH]nc1-c1ccc(NCc2ccccc2)nc1 [Compound 25] | ≤ 100 nM |
| CC(C)CNc1ccc(-c2n[nH]cc2CN(C)CCN)cn1 [Compound 26] | ≤ 100 nM |
| CN(CCN)Cc1c[nH]nc1-c1ccccn1 [Compound 27] | 3010 to 10000 nM |
| CNCCN(C)Cc1c[nH]nc1-c1ccc(N(C)CCC(C)C)nc1 [Compound 30] | ≤ 100 nM |
| CNCCN(C)Cc1c[nH]nc1-c1ccc(N(CC(C)C)CC(C)C)nc1 [Compound 31] | ≤ 100 nM |
| CCN(CCC(C)C)c1ccc(-c2n[nH]cc2CN(C)CCNC)cn1 [Compound 34, N^1-((3-(6-(ethyl(isopentyl)amino)pyridin-3-yl)-1H-pyrazol-4-yl)methyl)-N^1,N^2-dimethylethane-1,2-diamine] | ≤ 100 nM |
| CNCCN(C)Cc1c[nH]nc1-c1ccc(OCC(C)C)nc1 [Compound 35, N^1-((3-(6-iso-butoxypyridin-3-yl)-1H-pyrazol-4-yl)methyl)-N^1,N^2-dimethylethane-1,2-diamine] | ≤ 100 nM |

Next, values leading:

| IC50 | SMILES |
| --- | --- |
| 1010 to 3000 nM | CN(CCN)Cc1c[nH]nc1-c1cncc(S(C)(=O)=O)c1 [Compound 4] |
| 101 to 1000 nM | COc1ccc(-c2n[nH]cc2CN(C)CCN)cn1 [Compound 5] |
| ≥ 10000 nM | Cc1cncc(-c2n[nH]cc2CN(C)CCN)c1 [Compound 6] |
| ≤ 100 nM | CN(CCN)Cc1c[nH]nc1-c1ccncc1 [Compound 9] |
| 101 to 1000 nM | COc1cc(-c2n[nH]cc2CN(C)CCN)ccn1 [Compound 11] |
| ≤ 100 nM | CN(CCN)Cc1c[nH]nc1-c1ccc(C(F)(F)F)nc1 [Compound 13, N^1-methyl-N^1-((3-(6-(trifluoromethyl)pyridin-3-yl)-1H-pyrazol-4-yl)methyl)ethane-1,2-diamine] |
| 1010 to 3000 nM | COc1ncc(Cl)cc1-c1n[nH]cc1CN(C)CCN [Compound 14] |
| 101 to 1000 nM | COc1ncccc1-c1n[nH]cc1CN(C)CCN [Compound 15] |
| 101 to 1000 nM | CN(CCN)Cc1c[nH]nc1-c1cncc(C#N)c1 [Compound 18] |
| ≤ 100 nM | CN(CCN)Cc1c[nH]nc1-c1cncc(Cl)c1 [Compound 19] |
| ≤ 100 nM | CC(C)CN(C)c1ccc(-c2n[nH]cc2CN(C)CCN)cn1 [Compound 21] |
| ≤ 100 nM | CC(C)Oc1ccc(-c2n[nH]cc2CN(C)CCN)cn1 [Compound 22] |
| 101 to 1000 nM | CCN(CC)c1ccc(-c2n[nH]cc2CN(C)CCN)cn1 [Compound 24] |
| ≤ 100 nM | CN(CCN)Cc1c[nH]nc1-c1ccc(C#N)nc1 [Compound 28, 5-(4-(((2-aminoethyl)(methyl)amino)methyl)-1H-pyrazol-3-yl)picolinonitrile] |
| 1010 to 3000 nM | CN(CCN)Cc1c[nH]nc1-c1cnccc1C(F)(F)F [Compound 29] |
| ≤ 100 nM | CNCCN(C)Cc1c[nH]nc1-c1ccc(N(C)CC(C)C)nc1 [Compound 32, N^1-((3-(6-(isobutyl(methyl)amino)pyridin-3-yl)-1H-pyrazol-4-yl)methyl)-N^1,N^2-dimethylethane-1,2-diamine] |
| ≤ 100 nM | CNCCN(C)Cc1c[nH]nc1-c1ccc(N(C)C(C)C)nc1 [Compound 33, N^1-((3-(6-(isopropyl(methyl)amino)pyridin-3-yl)-1H-pyrazol-4-yl)methyl)-N^1,N^2-dimethylethane-1,2-diamine] |
| ≤ 100 nM | CCN(CC(C)C)c1ccc(-c2n[nH]cc2CN(C)CCNC)cn1 [Compound 36] |

— US9440950B2, “Arginine methyltransferase inhibitors and uses thereof” (Epizyme, Inc., priority 2013, dated 2016)
